Among the data in US20230044787A1, “TRICYCLE DIHYDROIMIDAZOPYRIMIDONE DERIVATIVE, PREPARATION METHOD THEREOF, PHARMACEUTICAL COMPOSITION AND USE THEREOF” (priority 2019, published 2023) are IC50 values, retold here.

The term IC50 denotes the concentration needed to halve the response being measured.

The first assay addresses T1, Lp-PLA2 (Homo sapiens, UniProt Q13093).
T1 construct: aliquoted and thawed 40 μL of pooled human plasma was previously added; from tissue; host or cells: pooled human plasma
T1 sequence (Q13093 22-441): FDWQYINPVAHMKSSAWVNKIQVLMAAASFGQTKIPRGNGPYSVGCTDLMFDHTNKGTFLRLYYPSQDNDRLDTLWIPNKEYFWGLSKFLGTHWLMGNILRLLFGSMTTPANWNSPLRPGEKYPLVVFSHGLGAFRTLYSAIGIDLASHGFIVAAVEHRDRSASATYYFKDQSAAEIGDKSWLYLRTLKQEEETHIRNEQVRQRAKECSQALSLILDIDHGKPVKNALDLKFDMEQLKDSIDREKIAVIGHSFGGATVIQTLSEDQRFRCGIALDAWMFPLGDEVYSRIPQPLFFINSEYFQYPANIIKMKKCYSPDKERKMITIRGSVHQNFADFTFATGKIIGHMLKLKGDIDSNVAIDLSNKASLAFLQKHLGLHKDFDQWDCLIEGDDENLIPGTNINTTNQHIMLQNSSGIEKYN
In words: Lipoprotein-associated phospholipase A2 (Lp-PLA2) human plasma assay (Thio-PAF assay). Type of assay: biochemical. The conditions noted are these: Comparison of activity data (I); pooled human plasma, 2-thio-PAF substrate, 30-min pre-incubation. The method, then:
Lipoprotein-Associated Phospholipase A2 (Lp-PLA2) Human Plasma Assay
The amount of sulfhydryl groups is continuously determined by the reaction with CPM (7-diethylamino-3-(4′-maleimidophenyl)-4-methylcoumarin), and the CPM is a maleimide of which fluorescence increases after Michael addition of sulfhydryl group. This assay can detect Lp-PLA2 activity in human plasma, as determined by specific inhibition of Lp-PLA2 inhibitors.
Thio-PAF assay was performed as quenched 75 μL assay. Compound source plate was prepared for each compound by preparing 1:3 (by volume) serial dilutions in pure DMSO in a 96-well microplate. The compound on the source plate was diluted 20-fold by transferring 3 μL of the compound from the compound source plate into a 96-well microplate pre-added with 57 μL of assay buffer by Rainin multichannel pipette. The assay buffer described above consisted of 50 mM HEPES, pH 7.4, 150 mM NaCl, 1 mM CHAPS. 1 μL of the 20-fold diluted compound was transferred by Rainin multichannel pipette into a 96-well Greiner 655076 (black) microplate to which aliquoted and thawed 40 μL of pooled human plasma was previously added. The plate was shaken for 20 seconds on a microplate shaker to mix well. After a 30-min pre-incubation at room temperature, 10 μL of substrate solution was added to the 96-well Greiner 655076 (black) microplate by Rainin multichannel pipette, in which the substrate solution contained 2.5 mM 2-thio-PAF [from ethanol stock], 32 μM CPM [from DMSO stock], and 3.2 mM NEM (N-ethylmaleimide) [freshly prepared in DMSO per experiment] in assay buffer consisting of 50 mM HEPES, pH 7.4; 150 mM NaCl; 1 mM CHAPS. After 2 min, the reaction was quenched with […] of 5% trifluoroacetic acid (TFA) in water. The plate was centrifuged at 2000 rpm for 1 minute. The plate was read at ex:380/em:485 using a Biotek Synergy H1 (H1MF) microplate reader. IC50 data, curves and QC analysis were performed using GraphPad Prism 6.0 and Excel.
Consider `O=c1nc(OCc2cc(F)c(F)c(F)c2)cc2n1CC13CCC(CC1)N23` [Example 52, 3-((3,4,5-trifluorobenzyl)oxy)-7,8-dihydro-1H,6H,9H-6,8a-ethanopyrrolo[1′,2′:3,4] imidazo[1,2-c]pyrimidin-1-one], for which the IC50 was 16 nM.

The assay is the same for the next values; noted with them: Lp-PLA2 human plasma assay (Thio-PAF), pooled human plasma, 30-min pre-incubation at room temperature.
For `O=c1nc(OCc2cc(F)c(Oc3ccnc(OC(F)(F)F)c3)c(F)c2)cc2n1CC13CC(CN21)C3` [Example 37, 3-((3,5-difluoro-4-((2-(trifluoromethoxy)pyridin-4-yl)oxy)benzyl)oxy)-7,8-dihydro-1H,6H,9H-7,8a-methanopyrrolo[1′,2′:3,4] imidazo[1,2-c]pyrimidin-1-one], the IC50 stood at 5.8 nM. On to `O=c1nc(OCc2cc(F)c(Oc3ccnc(Cl)c3)c(F)c2)cc2n1CC13CC(CN21)C3` [Example 38, 3-((4-((2-chloropyridin-4-yl)oxy)-3,5-difluorobenzyl)oxy)-7,8-dihydro-1H,6H,9H-7,8a-methanopyrrolo[1′,2′:3,4] imidazo[1,2-c]pyrimidin-1-one], for which the IC50 was 8.5 nM. On the same count and under the same terms, the result for `O=c1nc(OCc2cc(F)c(Oc3cnc(C(F)(F)F)nc3)c(F)c2)cc2n1CC13CC(CN21)C3` [Example 39, 3-((3,5-difluoro-4-((2-(trifluoromethyl)pyrimidin-5-yl)oxy)benzyl)oxy)-7,8-dihydro-1H,6H,9H-7,8a-methanopyrrolo[1′,2′:3,4] imidazo[1,2-c]pyrimidin-1-one] reads 13.8 nM; that for `O=c1nc(OCc2cc(F)c(Oc3cncc(C(F)(F)F)c3)c(F)c2)cc2n1CC13CC(CN21)C3` [Example 40], 6.4 nM; that for `N#Cc1cc(COc2cc3n(c(=O)n2)CC24CC(CN32)C4)ccc1Oc1ccc(Cl)c(C(F)(F)F)c1` [Example 41], 3.9 nM. As to `N#Cc1cc(COc2cc3n(c(=O)n2)CC24CC(CN32)C4)ccc1Oc1cccc(C(F)(F)F)c1` [Example 42], the IC50 worked out at 4.9 nM.

As to `N#Cc1cc(COc2cc3n(c(=O)n2)CC24CC(CN32)C4)ccc1Oc1ccnc(C(F)(F)F)c1` [Example 43], the IC50 worked out at 4 nM. As for `O=c1nc(OCc2ccccc2F)cc2n1CC13CC(CN21)C3` [Example 44, 3-((2-fluorobenzyl)oxy)-7,8-dihydro-1H,6H,9H-7,8a-methanopyrrolo[1′,2′:3,4] imidazo[1,2-c]pyrimidin-1-one], the IC50 is 342 nM. The same measure, in the same setting: the result for `O=c1nc(OCc2cccc(F)c2F)cc2n1CC13CC(CN21)C3` [Example 45, 3-((2,3-difluorobenzyl)oxy)-7,8-dihydro-1H,6H,9H-7,8a-methanopyrrolo[1′,2′:3,4] imidazo[1,2-c]pyrimidin-1-one] reads 71.8 nM.

With `O=c1nc(OCc2cc(F)c(Oc3ccnc(C(F)(F)F)c3)c(F)c2)cc2n1CC13CCC(CC1)N23` [Example 46, 3-((3,5-difluoro-4-((2-(trifluoromethyl)pyridin-4-yl)oxy)benzyl)oxy)-7,8-dihydro-1H,6H,9H-6,8a-ethanopyrrolo[1′,2′:3,4] imidazo[1,2-c]pyrimidin-1-one], the IC50 stood at 15.3 nM. Same read-out and setting: the result for `O=c1nc(OCc2cc(F)c(Oc3cnc(C(F)(F)F)nc3)c(F)c2)cc2n1CC13CCC(CC1)N23` [Example 47, 3-((3,5-difluoro-4-((2-(trifluoromethyl)pyrimidin-5-yl)oxy)benzyl)oxy)-7,8-dihydro-1H,6H,9H-6,8a-ethanopyrrolo[1′,2′:3,4] imidazo[1,2-c]pyrimidin-1-one] reads 9.4 nM; that for `Cn1cc(Oc2c(F)cc(COc3cc4n(c(=O)n3)CC35CCC(CC3)N45)cc2F)cn1` [Example 48, 3-((3,5-difluoro-4-((1-methyl-1H-pyrazol-4-yl)oxy)benzyl)oxy)-7,8-dihydro-1H,6H,9H-6,8a-ethanopyrrolo[1′,2′:3,4] imidazo[1,2-c]pyrimidin-1-one], 62.8 nM. As for `O=c1nc(OCc2ccc(Oc3ccc(F)c(C(F)(F)F)c3)nc2)cc2n1CC13CCC(CC1)N23` [Example 49, 3-((6-(4-fluoro-3-(trifluoromethyl)phenoxy)pyridin-3-yl)methoxy)-7,8-dihydro-1H,6H,9H-6,8a-ethanopyrrolo[1′,2′:3,4] imidazo[1,2-c]pyrimidin-1-one], the IC50 was determined as 168 nM. Consider `N#Cc1cc(COc2cc3n(c(=O)n2)CC24CCC(CC2)N34)ccc1Oc1ccc(Cl)c(C(F)(F)F)c1` [Example 50, 5-(((1-oxo-7,8-dihydro-1H,6H,9H-6,8a-ethanopyrrolo[1′,2′:3,4]imidazo[1,2-c]pyrimidin-3-yl)oxy)methyl)-2-(4-chloro-3-(trifluoromethyl)phenoxy) benzonitrile], for which the IC50 was determined as 2.7 nM. Still for that read-out and setting: the result for `N#Cc1cc(COc2cc3n(c(=O)n2)CC24CCC(CC2)N34)ccc1Oc1ccnc(C(F)(F)F)c1` [Example 51] reads 3.3 nM; that for `O=c1nc(OCc2cc(F)c(F)c(F)c2)cc2n1CC13CCC(CC1)N23` [Example 52, 3-((3,4,5-trifluorobenzyl)oxy)-7,8-dihydro-1H,6H,9H-6,8a-ethanopyrrolo[1′,2′:3,4] imidazo[1,2-c]pyrimidin-1-one], 16 nM. The same measure, in the same setting: the result for `O=c1nc(OCc2cc(F)c(Oc3ccnc(C(F)(F)F)c3)c(F)c2)cc2n1CC13CCC(CC1)CN23` [Example 53, 3-((3,5-difluoro-4-((2-(trifluoromethyl)pyridin-4-yl)oxy)benzyl)oxy)-6,7,8,9-tetrahydro-1H,10H-7,9a-ethanopyrido[1′,2′:3,4] imidazo[1,2-c]pyrimidin-1-one] reads 14.3 nM; that for `CC12CCCN1c1cc(OCc3cc(F)c(Oc4ccnc(C(F)(F)F)c4)c(F)c3)nc(=O)n1C2` (centres unmarked) [Example 54, 3-((3,5-difluoro-4-((2-(trifluoromethyl)pyridin-4-yl)oxy)benzyl)oxy)-8a-methyl-7,8,8a,9-tetrahydro-1H,6H-pyrrolo[1′,2′:3,4]imidazo [1,2-c]pyrimidin-1-one], 7.6 nM; that for `CC12CCCN1c1cc(OCc3cc(F)c(Oc4ccnc(OC(F)(F)F)c4)c(F)c3)nc(=O)n1C2` (centres unmarked) [Example 55, 3-((3,5-difluoro-4-((2-(trifluoromethoxy)pyridin-4-yl)oxy)benzyl)oxy)-8a-methyl-7,8,8a,9-tetrahydro-1H,6H-pyrrolo[1′,2′:3,4]imidazo [1,2-c]pyrimidin-1-one], 6.5 nM. In the case of `CC12CCCN1c1cc(OCc3cc(F)c(Oc4cnc(C(F)(F)F)nc4)c(F)c3)nc(=O)n1C2` (centres unmarked) [Example 56, 3-((3,5-difluoro-4-((2-(trifluoromethyl)pyrimidin-5-yl)oxy)benzyl)oxy)-8a-methyl-7,8,8a,9-tetrahydro-1H,6H-pyrrolo[1′,2′:3,4]imidazo [1,2-c]pyrimidin-1-one], the 50% inhibitory concentration (IC50) amounted to 7.7 nM. The same measure, in the same setting: the result for `Cn1cc(Oc2c(F)cc(COc3cc4n(c(=O)n3)CC3(C)CCCN43)cc2F)cn1` (centres unmarked) [Example 57, 3-((3,5-difluoro-4-((1-methyl-1H-pyrazol-4-yl)oxy)benzyl)oxy)-8a-methyl-7,8,8a,9-tetrahydro-1H,6Hpyrrolo[1′,2′:3,4] imidazo[1,2-c]pyrimidin-1-one] reads 62.2 nM; that for `CC12CCCN1c1cc(OCc3ccc(Oc4ccc(F)c(C(F)(F)F)c4)nc3)nc(=O)n1C2` (centres unmarked) [Example 58, 3-((6-(4-fluoro-3-(trifluoromethyl)phenoxy)pyridin-3-yl)methoxy)-8a-methyl-7,8,8a,9-tetrahydro-1H,6H-pyrrolo[1′,2′:3,4]imidazo [1,2-c]pyrimidin-1-one], 204 nM.

In the case of `CC12CCCN1c1cc(OCc3ccc(Oc4cccc(C(F)(F)F)c4)c(C#N)c3)nc(=O)n1C2` (centres unmarked) [Example 59, 5-(((8a-methyl-1-oxo-7,8,8a,9-tetrahydro-1H,6H-pyrrolo[1′,2′:3,4]imidazo [1,2-c]pyrimidin-3-yl)oxy)methyl)-2-(3-(trifluoromethyl)phenoxy) benzonitrile], the IC50 stood at 2.4 nM. On the same count and under the same terms, the result for `CC12CCCN1c1cc(OCc3ccc(Oc4ccc(C(F)(F)F)cc4)c(C#N)c3)nc(=O)n1C2` (centres unmarked) [Example 60, 5-(((8a-methyl-1-oxo-7,8,8a,9-tetrahydro-1H,6H-pyrrolo[1′,2′:3,4]imidazo [1,2-c]pyrimidin-3-yl)oxy)methyl)-2-(4-(trifluoromethyl)phenoxy) benzonitrile] reads 6.6 nM; that for `CC12CCCN1c1cc(OCCc3ccc(Oc4ccc(Cl)c(C(F)(F)F)c4)cc3)nc(=O)n1C2` (centres unmarked) [Example 61, 3-(4-(4-chloro-3-(trifluoromethyl)phenoxy)phenethoxy)-8a-methyl-7,8,8a,9-tetrahydro-1H,6H-pyrrolo[1′,2′:3,4]imidazo [1,2-c]pyrimidin-1-one], 3.4 nM.
